≈ marks a conversion by molar mass, not a printed value. Where “and” joins values, the source holds several entries; their conditions need not be identical. Identical values can stand only once.
Assays:
E. coli ∆nfsA + ∆nfsB = assay: microbe, parasite or virus in culture; assay type: cell-based; settings: for MIC: Escherichia coli, read-out: MIC ∆nfsA + ∆nfsB; for antibacterial activity in double knockout (in words): ΔnfsA and ΔnfsB double knockout strain
Method: (§1) To assess the biological relevance of the interacting protein and establish the link between nitroreductases to the antibacterial activity of NTC compounds, single (ΔnfsA or ΔnfsB) and double knockouts (ΔnfsA & ΔnfsB) of nitroreductases were generated by phage transduction using strains from the Keio collection.
(§2) The inoculum used for all the experiments is derived from a single seed lot that is maintained as glycerol stocks at −80 °C and are sub cultured on LB plate for isolated colonies. Single colony of each strain is grown in M9 medium. All test compound stocks and dilutions are prepared in DMSO. Serial two-fold dilutions of compounds are prepared separately, with the concentrations ranging from 2 mg/mL to 0.015 mg/mL. To 150 µl (3–7 × 10^5 CFU/ml) of bacterial culture in 96 well microtitre plates, 3 μL compound from each of the dilutions is added to respective wells to obtain final concentrations ranging from 40 µg/mL to 0.3 µg/mL of the test compounds. Media control, culture control and appropriate reference drug controls are included. […] Growth is monitored by checking absorbance at 600 nm (A600). […] The samples from MIC and above concentrations are plated for MBC (Minimum Bactericidal Concentration). The samples are diluted 1:10 and plated on LB agar plates. […] The killing kinetics is determined by enumerating survivors at various time points following compound exposure. E. coli cells (~10^7 CFU/ml; A600 of 0.1) are treated with various concentrations (40 µg/mL to 0.3 µg/mL) of compounds in a 96-well microtitre plate. At various time intervals (0 to 8 h), 30 μl volumes of treated cultures are serially diluted and plated on LB agar plates. […] Data is expressed as the log10 CFU for each drug treatment.

E. coli ∆nfsA = assay: microbe, parasite or virus in culture; assay type: cell-based; settings: Escherichia coli, read-out: MIC ∆nfsA
Method: as §1, §2

[1] = molecular target: T1, AcrB efflux pump in E. coli BW25113 (Escherichia coli, UniProt P31224); assay: Nile red efflux assay (whole-cell competition); assay type: cell-based; settings: for Concentration of compound required for complete inhibition of Nile red efflux (Tefflux50 >200 seconds): E. coli BW25113
T1 construct: endogenous in cells; host or cells: E. coli BW25113 (wild type)
Method: The Nile red assay is adopted from Bohnert et al.[18]. An overnight culture of E. coli strain BW25113 is harvested and is resuspended in 20 mM potassium phosphate buffer (pH 7.0) containing 1 mM MgCl2 (PPB). The cells are adjusted to an A660 of 1.0 in PPB and aliquoted into glass tubes (2 ml each). Carbonylcyanide-m-chlorophenylhydrazone (CCCP; a protonophore that uncouples the electron transport chain and thus inhibits AcrB mediated efflux) is added to a final concentration of 10 µM (5 mM stock solution in 50% DMSO) and incubated for 15 minutes before adding the potential competitor at desired concentrations. Nile red is then added (stock solution of 5 mM in 10% dimethyl formamide-90% ethanol [vol/vol]) to a final concentration of 5 µM. The cell suspension is incubated at room temperature on a shaker for 3 hours. The cells are harvested and resuspended in 2 ml PPB in the presence of the competitor. The cell suspension is aliquoted in a fluorimeter cuvette, to which, 100 µl of 1 M Glucose is added to activate the electron transport chain. The rate of efflux is measured by Tefflux50, it is the time taken for 50% of Nile red to be effluxed out in presence of the compounds. The fluorescence is measured (Excitation 552 nm, Emission 636 nm) for 200 seconds.

Cytotoxicity, MTS assay = assay type: cell-based; settings: human, A549 cells
Method: Cytotoxicity of the compounds was evaluated using MTS ((3-(4,5-dimethylthiazol-2-yl)-5-(3-carboxymethoxyphenyl)-2-(4-sulfophenyl)-2H-tetrazolium)) assay. A-549 cells were seeded in a 96 well plate at a density if 1.5 × 10^4 cells/well (100 μL). The cells were cultured in a CO2 incubator at 37 °C. A ten point concentration curve was set up starting from 5 nM to 100 μM with 3 fold dilution along with positive, negative and blank controls. The final concentration of DMSO was maintained at 1% throughout the plate. The compound treatment was carried out for 24 hrs. After incubation MTS reagent was added followed by 30 min incubation. The absorbance was measured at 490 nm. Data analysis was done using GraphPad Prism 6.0.

[2] = system: Klebsiella pneumoniae ATCC13883; assay: MIC, Klebsiella pneumoniae; assay type: cell-based; settings: for MIC Klebsiella pneumoniae: ATCC13883; for fold lower potency in comparison to E. coli WT MIC: WT K. pneumoniae ATCC strain
Method: as §2

[3] = system: E. coli ∆nfsAB & ∆acrB+nfnB; set-up: unit not given beside the values
Method: as §2

[4] = 1µM compound, time for 50% of Nile red to be effluxed, read for 200 seconds

T1 sequence (P0AE06 25-397): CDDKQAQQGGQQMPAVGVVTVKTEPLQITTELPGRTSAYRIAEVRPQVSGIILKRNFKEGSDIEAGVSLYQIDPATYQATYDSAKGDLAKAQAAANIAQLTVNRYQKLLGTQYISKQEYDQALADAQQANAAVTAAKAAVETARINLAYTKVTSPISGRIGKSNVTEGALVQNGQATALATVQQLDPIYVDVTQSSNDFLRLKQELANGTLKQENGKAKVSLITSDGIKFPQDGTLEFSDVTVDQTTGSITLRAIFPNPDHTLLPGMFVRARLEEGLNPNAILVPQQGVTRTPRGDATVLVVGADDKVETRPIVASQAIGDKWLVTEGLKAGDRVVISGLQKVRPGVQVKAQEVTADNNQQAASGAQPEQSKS
T1 sequence (P31224 whole entry): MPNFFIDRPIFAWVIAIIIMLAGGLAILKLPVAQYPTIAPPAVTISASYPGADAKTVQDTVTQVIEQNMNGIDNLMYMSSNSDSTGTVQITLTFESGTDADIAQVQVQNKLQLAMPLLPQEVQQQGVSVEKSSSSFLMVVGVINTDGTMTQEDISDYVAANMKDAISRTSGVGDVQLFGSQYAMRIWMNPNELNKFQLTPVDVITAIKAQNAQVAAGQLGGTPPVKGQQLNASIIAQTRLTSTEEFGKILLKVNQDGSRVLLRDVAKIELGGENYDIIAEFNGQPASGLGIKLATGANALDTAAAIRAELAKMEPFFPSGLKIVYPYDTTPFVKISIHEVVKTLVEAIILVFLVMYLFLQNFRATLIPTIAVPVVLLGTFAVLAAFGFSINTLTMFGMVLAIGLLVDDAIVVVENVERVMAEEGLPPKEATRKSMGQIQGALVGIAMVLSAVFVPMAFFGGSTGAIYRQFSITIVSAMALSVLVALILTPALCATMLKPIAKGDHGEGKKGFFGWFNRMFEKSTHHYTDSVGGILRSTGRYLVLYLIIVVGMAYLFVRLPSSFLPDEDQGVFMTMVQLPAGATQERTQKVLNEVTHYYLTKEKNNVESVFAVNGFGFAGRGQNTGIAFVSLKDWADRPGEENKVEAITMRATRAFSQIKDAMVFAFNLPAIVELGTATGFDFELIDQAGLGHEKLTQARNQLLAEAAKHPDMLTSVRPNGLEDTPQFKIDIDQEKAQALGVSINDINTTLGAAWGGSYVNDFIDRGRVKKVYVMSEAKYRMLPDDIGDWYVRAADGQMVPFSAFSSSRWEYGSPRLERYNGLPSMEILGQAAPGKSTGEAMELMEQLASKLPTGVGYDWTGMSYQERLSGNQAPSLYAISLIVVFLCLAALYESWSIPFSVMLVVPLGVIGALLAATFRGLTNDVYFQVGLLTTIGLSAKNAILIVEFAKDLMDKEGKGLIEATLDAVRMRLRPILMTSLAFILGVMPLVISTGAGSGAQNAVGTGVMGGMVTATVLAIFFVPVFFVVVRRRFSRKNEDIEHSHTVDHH
T1 sequence (P02930 23-493, further chain): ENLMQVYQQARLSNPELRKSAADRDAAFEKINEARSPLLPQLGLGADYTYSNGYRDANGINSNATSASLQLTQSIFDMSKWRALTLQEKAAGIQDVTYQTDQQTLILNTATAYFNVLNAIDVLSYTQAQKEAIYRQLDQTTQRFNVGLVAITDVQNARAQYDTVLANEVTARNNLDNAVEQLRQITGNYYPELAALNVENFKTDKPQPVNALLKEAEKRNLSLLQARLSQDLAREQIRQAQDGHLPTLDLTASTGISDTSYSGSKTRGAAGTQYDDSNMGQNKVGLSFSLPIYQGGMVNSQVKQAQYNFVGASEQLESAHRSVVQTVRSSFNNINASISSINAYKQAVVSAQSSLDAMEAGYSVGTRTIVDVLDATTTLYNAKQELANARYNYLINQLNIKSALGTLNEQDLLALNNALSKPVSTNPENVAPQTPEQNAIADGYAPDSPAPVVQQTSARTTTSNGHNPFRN

Structure (SMILES) | MIC (E. coli ∆nfsA + ∆nfsB) | MIC (E. coli ∆nfsA) | Tefflux50 [1, 4] | Tefflux50 ([1]; 9µM compound) | Tefflux50 ([1]; 27µM compound) | Tefflux50 ([1]; 81µM compound) | Tefflux50 ([1]; 100µM compound) | Tefflux50 ([1]; 200µM compound) | Tefflux50 ([1]; 400µM compound) | Concentration of compound required for complete inhibition of Nile red efflux (Tefflux50 >200 seconds) [1] | antibacterial activity in double knockout (in words) (E. coli ∆nfsA + ∆nfsB) | IC50 at 24 h (Cytotoxicity, MTS assay) | MIC Klebsiella pneumoniae [2] | fold lower potency in comparison to E. coli WT MIC [2] | MIC ∆nfsAB & ∆acrB+nfnB [3] | fold elevation of MIC in the double knockout (E. coli ∆nfsA + ∆nfsB; ∆nfsA & ∆nfsB vs WT)
Cc1sc(NC(=O)c2ccc([N+](=O)[O-])s2)nc1-c1ccccc1 [compound 7, N-(5-Methyl-4-phenylthiazol-2-yl)-5-nitrothiophene-2-carboxamide] | > 40 µg/mL | > 40 µg/mL | 88.05 s | 200 s | 200 s | 200 s | 200 s | 200 s | 200 s | 9 µM |  |  |  |  |  | 
O=C(Nc1nc(-c2ccc(F)cc2)cs1)c1ccc([N+](=O)[O-])s1 [compound 15, N-(4-(4-Fluorophenyl)thiazol-2-yl)-5-nitrothiophene-2-carboxamide] | > 40 µg/mL | 0.6 µg/mL (≈ 1.72 µM) | 61.52 s | 72.51 s | 81.24 s | 124.25 s | 200 s | 200 s | 200 s | 100 µM | completely inactive | 10.2 µg/mL (≈ 29.2 µM) | 5 µg/mL (≈ 14.3 µM) | 4-8 fold | 0.6 | 
O=C(Nc1nc(-c2ccc(F)cc2F)cs1)c1ccc([N+](=O)[O-])s1 [compound 12, N-(4-(2,4-difluorophenyl)thiazol-2-yl)-5-nitrothiophene-2-carboxamide] | > 40 µg/mL | 0.6 µg/mL (≈ 1.63 µM) | 66.41 s | 67.52 s | 67.98 s | 68.06 s | 68.17 s | 68.34 s | 68 s and 68.25 s | > 400 µM | completely inactive | 16.9 µg/mL (≈ 46 µM) | 2.5 µg/mL (≈ 6.81 µM) | 4-8 fold | 0.3 | 
O=C1CN(/N=C/c2ccc([N+](=O)[O-])o2)C(=O)N1 [nitrofurantoin, reference compound] | 20 µg/mL | 5 µg/mL (≈ 21 µM) |  |  |  |  |  |  |  |  |  |  |  |  |  | about 8 fold
COc1cc(-c2csc(NC(=O)c3ccc([N+](=O)[O-])s3)n2)ccc1Cl [compound 20, N-(4-(4-chloro-3-methoxyphenyl)thiazol-2-yl)-5-nitrothiophene-2-carboxamide] | > 40 µg/mL | 0.6 µg/mL (≈ 1.52 µM) | 69.24 s | 71.14 s | 72.65 s | 104.21 s | 200 s | 200 s | 200 s | 100 µM | completely inactive | 8.3 µg/mL (≈ 21 µM) | 10 µg/mL (≈ 25.3 µM) | 4-8 fold | 0.6 | 
